Measured values: the supplement of paper PMC12533247

Tests used:
primary keratinocytes = test: % change in live cells vs DMSO control; higher = less cytotoxic; details: time (h post treatment): 20
Method: (§1)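 Cytotoxicity in uninfected 2D primary donor keratinocytes (20 h post treatment) and fibroblasts (48 h post treatment), measured with NucSpot live/dead dyes on IncuCyte. Live cells are normalised to the 0.2% DMSO control and shown as % change. Three biological replicates for each of donors 3, 4 and 5.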

[1] = system: primary dermal fibroblasts; test: as above; details: time (h post treatment): 48
Method: as §1

O=C(Nc1ccc([N+](=O)[O-])cc1Cl)c1cc(Cl)ccc1O [Niclosamide]
% change in live cells [%]
Details	0.082305 µM	0.246914 µM	0.740741 µM	2.22222 µM	6.66667 µM	20 µM	60 µM
[1], donor: 3	-18.7	-17	-16	-24.7	-35	-49.7	-56
[1], donor: 4	3	2.67	-0.333	-2	-9	-41.7	-38
[1], donor: 5	5	1.67	-1	-2.67	-26	-63	-74.33
primary keratinocytes, donor: 3	-8	-11.7	-30	-14.3	-23	-61.7	-68
primary keratinocytes, donor: 4	-13	-20.7	-20.7	-15.3	-13	-25.7	-69.7
primary keratinocytes, donor: 5	-11.7	-11.3	-8	-13.3	-9	-26.7	-54.7

C=CC(=O)N1CC/C(=C\c2ccc(F)c([N+](=O)[O-])c2)C(=O)/C(=C/c2ccc(F)c([N+](=O)[O-])c2)C1 [VLX1570]
% change in live cells [%]
Details	0.082305 µM	0.246914 µM	0.740741 µM	2.22222 µM	6.66667 µM	20 µM	60 µM
[1], donor: 3	-13	-15.3	-24	-46.7	-100	-101.3	-98.7
[1], donor: 4	2.33	0	-1.33	-3	-3	-44	-116
[1], donor: 5	2	4.67	4.33	-1.67	-20.7	-98	-96.7
primary keratinocytes, donor: 3	-11.3	-24	-37.7	-54	-58.3	-85.3	-95
primary keratinocytes, donor: 4	-13.3	-18	-13	-9.33	-66	-70	-99.33
primary keratinocytes, donor: 5	-6.33	-10	-11	-10.7	-39	-74.7	-97.67

COc1ccc(-c2nc(N3CCOCC3)c3sc(CN(C)c4ncc(C(=O)NO)cn4)cc3n2)cn1 [Fimepinostat]
% change in live cells [%]
Details	0.082305 µM	0.246914 µM	0.740741 µM	2.22222 µM	6.66667 µM	20 µM	60 µM
[1], donor: 3	-29.3	-34.3	-41.3	-56	-61	-64.7	-75
[1], donor: 4	-13	-33.3	-44	-67.3	-60.3	-56.3	-60.3
[1], donor: 5	6.67	-8.67	-23.3	-56.3	-60	-68	-79.3
primary keratinocytes, donor: 3	-23.3	-39.7	-38.7	-41.3	-42.3	-76	-95.3
primary keratinocytes, donor: 4	-5.33	-20.7	-34.3	-59	-79.3	-99.7	-94.33
primary keratinocytes, donor: 5	-8	-13.7	-38	-58.7	-67	-80.7	-95.33

Cc1nc(N(C)C(=O)Cc2ccc(-c3ccccn3)cc2)sc1S(N)(=O)=O [Pritelivir]
% change in live cells [%]
Details	0.082305 µM	0.246914 µM	0.740741 µM	2.22222 µM	6.66667 µM	20 µM	60 µM
[1], donor: 3	-10.3	-8.67	-8	-9	-11	-10	-10
[1], donor: 4	-2.67	-1	-6.33	-2	1.33	7	3.33
[1], donor: 5	7.67	7.67	3.67	0.667	-1	-1	-13
primary keratinocytes, donor: 3	-3.33	-6.67	-8.33	-6.33	-0.667	-38	-78.3
primary keratinocytes, donor: 4	-1	-18.3	-6	-4.67	-44.3	-28.7	-61.7
primary keratinocytes, donor: 5	-1.67	-7.33	-0.667	-5.33	0.333	7.67	-20

O=C(/C=C\n1cnc(-c2cc(C(F)(F)F)cc(C(F)(F)F)c2)n1)NNc1ccccn1 [Verdinexor]
% change in live cells [%]
Details	0.082305 µM	0.246914 µM	0.740741 µM	2.22222 µM	6.66667 µM	20 µM	60 µM
[1], donor: 3	-24	-20.3	-22.3	-23.3	-24.7	-27.7	-40.3
[1], donor: 4	-8.33	-9.67	-14	-9.67	-11	-13.3	-31.3
[1], donor: 5	-0.667	-6.33	-10.7	-15.7	-18.7	-23.7	-44
primary keratinocytes, donor: 3	-11	-23.3	-38.7	-44.3	-60.3	-68.3	-75.3
primary keratinocytes, donor: 4	-9	-17	-12	-32	-42.3	-74.7	-86.7
primary keratinocytes, donor: 5	-5.67	-12.7	-16.7	-23.3	-31.7	-74	-82

Cc1cccc(C)c1N(CC(=O)Nc1ccc(-c2ncon2)cc1)C(=O)C1CCS(=O)(=O)CC1 [Amenamevir]
% change in live cells [%]
Details	0.082305 µM	0.246914 µM	0.740741 µM	2.22222 µM	6.66667 µM	20 µM	60 µM
[1], donor: 3	-6.67	-7	-7.33	-6	-6	-6.33	-6.33
[1], donor: 4	5	4.67	2.67	5	6.67	4.67	0
[1], donor: 5	2.33	4.33	3	0	-3	-4.67	-23.3
primary keratinocytes, donor: 3	-5	-8.33	-12	-3.33	1.67	-32.7	-70.3
primary keratinocytes, donor: 4	8.33	-12.7	-6	-3.33	-36.7	-42	-63.3
primary keratinocytes, donor: 5	-7.67	-7	-5.67	-5.33	-1.67	5.67	-5

Nc1ccn([C@@H]2O[C@H](CO)[C@@H](O)C2(F)F)c(=O)n1 [Gemcitabine]
% change in live cells [%]
Details	0.082305 µM	0.246914 µM	0.740741 µM	2.22222 µM	6.66667 µM	20 µM	60 µM
[1], donor: 3	-21.3	-23.7	-27.3	-30.3	-33.3	-38	-43.7
[1], donor: 4	-9.33	-9.33	-15.7	-11.7	-9.67	-18	-19.7
[1], donor: 5	-5	-11.3	-21.3	-26.3	-34.3	-43.3	-52.7
primary keratinocytes, donor: 3	-37.7	-45.3	-49.7	-52.3	-57.3	-75.7	-77.7
primary keratinocytes, donor: 4	-63	-67.7	-63.7	-63.7	-74.3	-76.3	-87.3
primary keratinocytes, donor: 5	-51.3	-52.7	-51.3	-55.7	-61	-70	-78.7

CC(C)c1cnn2c(NCc3ccccc3-n3cccn3)nc(OC3CCCNC3)nc12 (stereo not given) [LDC4297]
% change in live cells [%]
Details	0.082305 µM	0.246914 µM	0.740741 µM	2.22222 µM	6.66667 µM	20 µM	60 µM
[1], donor: 3	-12.3	-11.3	-17.3	-22.3	-23	-24.3	-30.3
[1], donor: 4	-2.33	-6.33	-5.33	-5	-7.33	-3	0.667
[1], donor: 5	-0.667	-2.33	-7	-16.3	-22.7	-27.3	-33
primary keratinocytes, donor: 3	-12	-41.3	-36	-56.3	-75	-80.3	-90
primary keratinocytes, donor: 4	1	-17.7	-37	-70	-98.67	-97.7	-99.67
primary keratinocytes, donor: 5	-10.3	-17	-27.7	-51.7	-94.33	-95	-95.3

CC1(C)CC(=O)c2c(C(F)(F)F)nn(-c3ccc(C(N)=O)c(N[C@H]4CC[C@H](O)CC4)c3)c2C1 [SNX-2112]
% change in live cells [%]
Details	0.082305 µM	0.246914 µM	0.740741 µM	2.22222 µM	6.66667 µM	20 µM	60 µM
[1], donor: 3	-17.7	-20.7	-23	-22.3	-22.7	-22.7	-21
[1], donor: 4	14.3	4.67	0.333	0.667	6.33	7.33	1
[1], donor: 5	9	-1.67	-1.67	-8.67	-10.3	-13.7	-32.3
primary keratinocytes, donor: 3	-14.3	-38.3	-40.3	-43.7	-49	-59.3	-79.3
primary keratinocytes, donor: 4	4.33	-29	-53.3	-58.7	-70	-74	-74
primary keratinocytes, donor: 5	-22	-60.7	-72.3	-77	-79	-76.7	-57.7

CC(=O)O[C@H]1C[C@H](O[C@H]2[C@@H](O)C[C@H](O[C@H]3[C@@H](O)C[C@H](O[C@H]4CC[C@@]5(C)[C@H](CC[C@@H]6[C@@H]5C[C@@H](O)[C@]5(C)[C@@H](C7=CC(=O)OC7)CC[C@]65O)C4)O[C@@H]3C)O[C@@H]2C)O[C@H](C)[C@H]1O[C@@H]1O[C@H](CO)[C@@H](O)[C@H](O)[C@H]1O [Lanatoside C]
% change in live cells [%]
Details	0.082305 µM	0.246914 µM	0.740741 µM	2.22222 µM	6.66667 µM	20 µM	60 µM
[1], donor: 3	-25.7	-39.7	-48.3	-47	-46	-43.3	-49.3
[1], donor: 4	-1.33	-20	-28.3	-29.7	-24.3	-22.7	-23.3
[1], donor: 5	-11.3	-32.7	-31.7	-37.3	-42	-46.7	-58.7
primary keratinocytes, donor: 3	-27	-47	-55.3	-53.7	-58	-67.7	-71.3
primary keratinocytes, donor: 4	-18	-39.7	-63	-64	-71.3	-76.3	-76.3
primary keratinocytes, donor: 5	-3.67	-54.3	-58.3	-59	-56.3	-57.3	-62.3
